In US20120027862A1, “Azelaic acid-comprising formulation with added pigment” (INTENDIS GMBH, priority 2010, published 2012):
Where “and” joins values, the source holds several entries; their conditions need not be identical. Equal entries are not always repeated.

Key:
Type in all cases: cell-based, human
[1] = tested on: TNF-α; test: TNF-α in supernatants of UVB-irradiated HaCaT cells; conditions: UVB 100 mJ irradiated, azelaic acid 20 mM, pigment 3%
Protocol: (§1) HaCaT cells originate from a spontaneously immortalized permanent human keratinocyte cell line established by long-term cultivation of adult human keratinocytes under reduced calcium concentration and elevated temperature (Boukamp et al. J Cell Biol 106:761-771, 1988). HaCaT cells were propagated in culture medium. This consists of 88 ml DMEM/Ham's F12 w/o glutamine, 10 ml foetal calf serum, 1 ml penicillin/streptomycin solution with 10,000 units/ml and 1 ml of glutamine. […] HaCaT cells were sown in 6-well or 12-well plates at a cell number of 3×10^5 and 1.5×10^5 cells/well, respectively. The cells were cultivated to about 80% confluence in culture medium. 2 h prior to the intended UV irradiation, the cells were incubated with the above-mentioned substances. Immediately before the irradiation, the cells were washed 2× with PBS and irradiated therein. Irradiation was with UVB (spectrum: 280-360 nM, max. 320 nM) in a Waldmann-UVB source UV7002 at 100 mJ. […] The protein concentration was determined using a commercial kit from Meso Scale Discovery, Gaithersburg, Md., USA. […] The samples were then washed once more, 150 μl of read buffer were pipetted into the mixture and the electrochemiluminescence was measured in an MSD Sector plate reader. […] The following cell cultures were prepared: • unirradiated HaCaTs • irradiated HaCaTs (100 mJ) • irradiated HaCaTs (100 mJ) in the presence of azelaic acid, • irradiated HaCaTs (100 mJ) in the presence of azelaic acid and titanium dioxide-coated potassium aluminium silicate The following reagents were used to treat the cells: • azelaic acid, Fluka, batch S3317131508B29, 20 mM • titanium dioxide-coated potassium aluminium silicate, Merck Darmstadt, batch W08012807X, 3% The following cytokines/chemokines were analyzed: • IL-1β • IL-6 • TNF-α • VEGF • MCP-1=CCL2 HaCaT cells were cultivated in triplicates, irradiated with 100 mJ UVB and then cultivated in the presence or absence of azelaic acid and, if appropriate, titanium dioxide-coated potassium aluminium silicate or the combination thereof for 24 or 48 h. […]

[2] = tested on: HaCaT cells; test: Overall anti-inflammatory effect in UVB-irradiated skin cell cultures (HaCaT); conditions: addition of azelaic acid
Protocol: HaCaT cells originate from a spontaneously immortalized permanent human keratinocyte cell line established by long-term cultivation of adult human keratinocytes under reduced calcium concentration and elevated temperature (Boukamp et al. J Cell Biol 106:761-771, 1988). HaCaT cells were propagated in culture medium. This consists of 88 ml DMEM/Ham's F12 w/o glutamine, 10 ml foetal calf serum, 1 ml penicillin/streptomycin solution with 10,000 units/ml and 1 ml of glutamine. […] HaCaT cells were sown in 6-well or 12-well plates at a cell number of 3×10^5 and 1.5×10^5 cells/well, respectively. The cells were cultivated to about 80% confluence in culture medium. 2 h prior to the intended UV irradiation, the cells were incubated with the above-mentioned substances. Immediately before the irradiation, the cells were washed 2× with PBS and irradiated therein. […] The protein concentration was determined using a commercial kit from Meso Scale Discovery, Gaithersburg, Md., USA. […] The samples were then washed once more, 150 μl of read buffer were pipetted into the mixture and the electrochemiluminescence was measured in an MSD Sector plate reader. […] The cytokines IL-1β (A), IL-6 (B), TNFα (C), VEGF (D) and MCP-1/CCL2 (E) were measured in the supernatant in triplicate after 24 (series I) and 48 h (series II) using Mesoscale. […]

[3] = tested on: IL-1β; test: IL-1β in supernatants of UVB-irradiated HaCaT cells; conditions: UVB 100 mJ irradiated, azelaic acid 20 mM, pigment 3%
Protocol: (§2) HaCaT cells originate from a spontaneously immortalized permanent human keratinocyte cell line established by long-term cultivation of adult human keratinocytes under reduced calcium concentration and elevated temperature (Boukamp et al. J Cell Biol 106:761-771, 1988). HaCaT cells were propagated in culture medium. This consists of 88 ml DMEM/Ham's F12 w/o glutamine, 10 ml foetal calf serum, 1 ml penicillin/streptomycin solution with 10,000 units/ml and 1 ml of glutamine. […] HaCaT cells were sown in 6-well or 12-well plates at a cell number of 3×10^5 and 1.5×10^5 cells/well, respectively. The cells were cultivated to about 80% confluence in culture medium. 2 h prior to the intended UV irradiation, the cells were incubated with the above-mentioned substances. Immediately before the irradiation, the cells were washed 2× with PBS and irradiated therein. Irradiation was with UVB (spectrum: 280-360 nM, max. 320 nM) in a Waldmann-UVB source UV7002 at 100 mJ. After the UV irradiation, the cells were irradiated in culture medium in the presence and absence of the abovementioned substances. The cultures were stopped 24 h or 48 h after the UVB irradiation, and the supernatant was removed and centrifuged to remove debris and titanium dioxide-coated potassium aluminium silicate. All cultures were set up in triplicate. The supernatants were frozen at -80° C. until further use. The protein concentration was determined using a commercial kit from Meso Scale Discovery, Gaithersburg, Md., USA. The test was carried out in accordance with the instructions of the manufacturer (www.mesoscale.com). […] The samples were then washed once more, 150 μl of read buffer were pipetted into the mixture and the electrochemiluminescence was measured in an MSD Sector plate reader. […] The following cell cultures were prepared: • unirradiated HaCaTs • irradiated HaCaTs (100 mJ) • irradiated HaCaTs (100 mJ) in the presence of azelaic acid, • irradiated HaCaTs (100 mJ) in the presence of azelaic acid and titanium dioxide-coated potassium aluminium silicate The following reagents were used to treat the cells: • azelaic acid, Fluka, batch S3317131508B29, 20 mM • titanium dioxide-coated potassium aluminium silicate, Merck Darmstadt, batch W08012807X, 3% The following cytokines/chemokines were analyzed: • IL-1β • IL-6 • TNF-α • VEGF • MCP-1=CCL2 HaCaT cells were cultivated in triplicates, irradiated with 100 mJ UVB and then cultivated in the presence or absence of azelaic acid and, if appropriate, titanium dioxide-coated potassium aluminium silicate or the combination thereof for 24 or 48 h. […] The cytokines IL-1β (A), IL-6 (B), TNFα (C), VEGF (D) and MCP-1/CCL2 (E) were measured in the supernatant in triplicate after 24 (series I) and 48 h (series II) using Mesoscale. […]

[4] = tested on: MCP-1; test: MCP-1/CCL2 in supernatants of UVB-irradiated HaCaT cells; conditions: UVB 100 mJ irradiated, azelaic acid 20 mM, pigment 3%
Protocol: as §2

[5] = tested on: VEGF; test: VEGF in supernatants of UVB-irradiated HaCaT cells
Protocol: HaCaT cells originate from a spontaneously immortalized permanent human keratinocyte cell line established by long-term cultivation of adult human keratinocytes under reduced calcium concentration and elevated temperature (Boukamp et al. J Cell Biol 106:761-771, 1988). HaCaT cells were propagated in culture medium. This consists of 88 ml DMEM/Ham's F12 w/o glutamine, 10 ml foetal calf serum, 1 ml penicillin/streptomycin solution with 10,000 units/ml and 1 ml of glutamine. […] HaCaT cells were sown in 6-well or 12-well plates at a cell number of 3×10^5 and 1.5×10^5 cells/well, respectively. The cells were cultivated to about 80% confluence in culture medium. 2 h prior to the intended UV irradiation, the cells were incubated with the above-mentioned substances. Immediately before the irradiation, the cells were washed 2× with PBS and irradiated therein. Irradiation was with UVB (spectrum: 280-360 nM, max. 320 nM) in a Waldmann-UVB source UV7002 at 100 mJ. After the UV irradiation, the cells were irradiated in culture medium in the presence and absence of the abovementioned substances. The cultures were stopped 24 h or 48 h after the UVB irradiation, and the supernatant was removed and centrifuged to remove debris and titanium dioxide-coated potassium aluminium silicate. All cultures were set up in triplicate. The supernatants were frozen at -80° C. until further use. The protein concentration was determined using a commercial kit from Meso Scale Discovery, Gaithersburg, Md., USA. The test was carried out in accordance with the instructions of the manufacturer (www.mesoscale.com). After addition of the blocking solution to the plates precoated with scavenger antibodies, the samples were incubated for 1 h and then washed. […] After this time, the detection antibody was added for 1 h. The samples were then washed once more, 150 μl of read buffer were pipetted into the mixture and the electrochemiluminescence was measured in an MSD Sector plate reader. […] The following cell cultures were prepared: • unirradiated HaCaTs • irradiated HaCaTs (100 mJ) • irradiated HaCaTs (100 mJ) in the presence of azelaic acid, • irradiated HaCaTs (100 mJ) in the presence of azelaic acid and titanium dioxide-coated potassium aluminium silicate The following reagents were used to treat the cells: • azelaic acid, Fluka, batch S3317131508B29, 20 mM • titanium dioxide-coated potassium aluminium silicate, Merck Darmstadt, batch W08012807X, 3% The following cytokines/chemokines were analyzed: • IL-1β • IL-6 • TNF-α • VEGF • MCP-1=CCL2 HaCaT cells were cultivated in triplicates, irradiated with 100 mJ UVB and then cultivated in the presence or absence of azelaic acid and, if appropriate, titanium dioxide-coated potassium aluminium silicate or the combination thereof for 24 or 48 h. The supernatants were then used to measure proinflammatory cytokines. The cytokines IL-1β (A), IL-6 (B), TNFα (C), VEGF (D) and MCP-1/CCL2 (E) were measured in the supernatant in triplicate after 24 (series I) and 48 h (series II) using Mesoscale. What is shown are the mean values and also the respective individual values of the protein determinations.

[6] = tested on: IL-6; test: IL-6 in supernatants of UVB-irradiated HaCaT cells; conditions: UVB 100 mJ irradiated, azelaic acid 20 mM, pigment 3%
Protocol: as §1

O=C(O)CCCCCCCC(=O)O [Azelaic acid, azelaic acid]
TNF-α in HACaT cell supernatants after 24 h, mean ([1]; 24 h, mean n = 3): 7.2 pg/L | TNF-α in HACaT cell supernatants after 24 h, individual values #1-#3 ([1]; 24 h, single cultures): 7.6 pg/L and 21.63 pg/L and 6.7 pg/L | TNF-α in HACaT cell supernatants after 48 h, mean ([1]; 48 h, mean n = 3): 30.0 pg/L | induction of the inflammatory cytokines (IL-1β, IL-6, TNF-α) after irradiation of keratinocytes [2]: can be reduced | IL-1β in HACaT cell supernatants after 24 h, mean ([3]; 24 h, mean n = 3): 5.8 pg/L | IL-1β in HACaT cell supernatants after 24 h, individual values #1-#3 ([3]; 24 h, single cultures): 3.1 pg/l (2×) and 11.3 pg/l | IL-1β in HACaT cell supernatants after 48 h, mean ([3]; 48 h, mean n = 3): 10.4 pg/L | IL-1β in HACaT cell supernatants after 48 h, individual values #1-#3 ([3]; 48 h, single cultures): 7.2 pg/mL and 14.3 pg/mL and 9.7 pg/mL | MCP-1 in HACaT cell supernatants after 24 h, mean ([4]; 24 h, mean n = 3): 683.2 pg/L | MCP-1 in HACaT cell supernatants after 24 h, individual values #1-#3 ([4]; 24 h, single cultures): 520.8 pg/L and 908.9 pg/L and 619.9 pg/L | MCP-1 in HACaT cell supernatants after 48 h, mean ([4]; 48 h, mean n = 3): 1190.1 pg/L | MCP-1 in HACaT cell supernatants after 48 h, individual values #1-#3 ([4]; 48 h, single cultures): 1116.1 pg/L and 1279.9 pg/L and 1174.3 pg/L | VGEF in HACaT cell supernatants after 24 h, mean ([5]; UVB 100 mJ irradiated, 24 h, azelaic acid 20 mM, pigment 3%, mean n = 3): 692.4 pg/L | VGEF in HACaT cell supernatants after 24 h, individual values #1-#3 ([5]; UVB 100 mJ irradiated, 24 h, azelaic acid 20 mM, pigment 3%, single cultures): 633.4 pg/L and 1694.59 pg/L and 751.4 pg/L | VGEF in HACaT cell supernatants after 48 h, mean ([5]; UVB 100 mJ irradiated, 48 h, azelaic acid 20 mM, pigment 3%, mean n = 3): 3999.0 pg/L | VGEF in HACaT cell supernatants after 48 h, individual values #1-#3 ([5]; UVB 100 mJ irradiated, 48 h, azelaic acid 20 mM, pigment 3%, single cultures): 2950 pg/mL and 5810 pg/mL and 3240 pg/mL | effect on the endothelial growth factor VEGF ([5]; keratinocytes, azelaic acid alone): leads to a reduction | IL-6 in HACaT cell supernatants after 24 h, mean ([6]; 24 h, mean n = 3): 44.3 pg/L | IL-6 in HACaT cell supernatants after 24 h, individual values #1-#3 ([6]; 24 h, single cultures): 24.7 pg/L and 70.9 pg/L and 37.4 pg/L | IL-6 in HACaT cell supernatants after 48 h, mean ([6]; 48 h, mean n = 3): 120.7 pg/L
